Measurements from patent US20250197389A1, “NITROGEN-CONTAINING HETEROCYCLIC COMPOUND” (SHANGHAI SHIJIANG BIOTECHNOLOGY CO., LTD, priority 2022, published 2025).

How the values were obtained:
mPTP-active Daoy cell = experiment: Inhibitory effect on mPTP-active Daoy cell (Promega CellTiter-Glo, intracellular ATP); format: cell-based, human; details: Daoy cell transfected with empty virus vector without PPIF shRNA
mPTP-inactive Daoy cell = experiment: Inhibitory effect on mPTP-inactive Daoy cell (PPIF shRNA; Promega CellTiter-Glo, intracellular ATP); format: cell-based, human; details: Daoy cell transfected with virus vector carrying PPIF shRNA
Text: The activity of mitochondria permeability transition pore (mPTP) was regulated by the PPIF protein. […] PPIF protein activity was restricted by the expression level of PPIF protein in cell.

SMILES | IC50 (mPTP-active Daoy cell; Homo sapiens, Daoy) | IC50 (mPTP-inactive Daoy cell; Homo sapiens, Daoy) | IC50 (mPTP-active Daoy cell) | IC50 (mPTP-inactive Daoy cell)
COc1ccc2c(c1OCCCCCCCl)C(C(Cl)(Cl)Cl)N1CCc3cc4c(cc3C1=C2)OCO4 (stereo not drawn) [AB35475] | 2640 nM | 1230 nM | – | –
COc1ccc2c(c1OCCCCOc1ccccc1)C(C(Cl)(Cl)Cl)N1CCc3cc4c(cc3C1=C2)OCO4 (stereo not drawn) [AB35476] | 2350 nM | 1080 nM | – | –
COc1ccc2c(c1OCCCF)C(C(Cl)(Cl)Cl)N1CCc3cc4c(cc3C1=C2)OCO4 (stereo not drawn) [AB35478] | 3780 nM | 1510 nM | – | –
COc1ccc2c(c1OC)C(C(Cl)(Cl)Cl)N1CCc3cc4c(cc3C1=C2CCCc1ccccc1)OCCO4 (stereo not drawn) [AB35484] | 3060 nM | 970 nM | – | –
COc1ccc2c(c1OCCCF)C(C)N1CCc3cc4c(cc3C1=C2)OCO4 (stereo not drawn) [AB35485] | 16300 nM | 5270 nM | – | –
COc1ccc2c(c1NCCc1ccccc1)C(C(Cl)(Cl)Cl)N1CCc3cc4c(cc3C1=C2)OCO4 (stereo not drawn) [AB35486] | 710 nM | 230 nM | – | –
CCCCCCOc1c(OC)ccc2c1C(C(Cl)(Cl)Cl)N1CCc3cc4c(cc3C1=C2)OCO4 (stereo not drawn) [AB35487] | 1770 nM | 470 nM | – | –
CCC1=C2c3cc4c(cc3CCN2C(C(Cl)(Cl)Cl)c2c1ccc(OC)c2OC)OCO4 (stereo not drawn) [AB35488] | 5270 nM | 2020 nM | – | –
CCCCCCC1=C2c3cc4c(cc3CCN2C(C2CCCC2)c2c1ccc(OC)c2OC)OCO4 (stereo not drawn) [AB35489] | 1680 nM | 790 nM | – | –
COc1ccc2c(c1OCCCCl)C(C1CCC1)N1CCc3cc4c(cc3C1=C2)OCO4 (stereo not drawn) [AB35490] | 10600 nM | 3760 nM | – | –
COc1ccc2c(c1OCCCCl)C(C1CCCCC1)N1CCc3cc4c(cc3C1=C2)OCO4 (stereo not drawn) [AB35491] | 6010 nM | 2630 nM | – | –
CCCC1=C2c3cc4c(cc3CCN2C(C(Cl)(Cl)Cl)c2c1ccc(OC)c2OC)OCO4 (stereo not drawn) [AB35492] | 3780 nM | 1340 nM | – | –
COc1ccc2c(c1OC)C(C)N1CCc3cc4c(cc3C1=C2CCCc1ccccc1)OCO4 (stereo not drawn) [AB35493] | 3330 nM | 1020 nM | – | –
CCCCOc1c(OC)ccc2c1C(C(Cl)(Cl)Cl)N1CCc3cc4c(cc3C1=C2)OCO4 (stereo not drawn) [AB35494] | 1280 nM | 360 nM | – | –
COc1ccc2c(c1OCCCCCl)C(C(Cl)(Cl)Cl)N1CCc3cc4c(cc3C1=C2)OCO4 (stereo not drawn) [AB35496] | 12400 nM | 5280 nM | – | –
CCCCCCCCC1=C2c3cc4c(cc3CCN2C(C(Cl)(Cl)Cl)c2c1ccc(OC)c2OC)OCO4 (stereo not drawn) [AB35497] | 3280 nM | 1150 nM | – | –
COc1ccc2c(c1OC)C(C)N1CCc3cc4c(cc3C1=C2CCc1ccccc1)OCO4 (stereo not drawn) [AB35498] | 6350 nM | 3100 nM | – | –
CCOc1c(OC)ccc2c1C(C(Cl)(Cl)Cl)N1CCc3cc4c(cc3C1=C2)OCO4 (stereo not drawn) [AB35499] | 6450 nM | 3150 nM | – | –
COc1ccc2c(c1OC)C(C1CCCC1)N1CCc3cc4c(cc3C1=C2CCCCCCCl)OCO4 (stereo not drawn) [AB35500] | 3460 nM | 1710 nM | – | –

SMILES | IC50 (mPTP-active Daoy cell; Homo sapiens, Daoy) | IC50 (mPTP-inactive Daoy cell; Homo sapiens, Daoy) | IC50 (mPTP-active Daoy cell) | IC50 (mPTP-inactive Daoy cell)
COc1ccc2c(c1OC)C(C(Cl)(Cl)Cl)N1CCc3cc4c(cc3C1=C2CCCCCCBr)OCO4 (stereo not drawn) [AB35501] | 4980 nM | 1910 nM | – | –
CCCCC1=C2c3cc4c(cc3CCN2C(C(Cl)(Cl)Cl)c2c1ccc(OC)c2OC)OCO4 (stereo not drawn) [AB35502] | 6140 nM | 2970 nM | – | –
CCCC1=C2c3cc4c(cc3CCN2C(C2CCCC2)c2c1ccc(OC)c2OC)OCO4 (stereo not drawn) [AB35504] | 10600 nM | 4250 nM | – | –
CCCCCOc1c(OC)ccc2c1C(C(Cl)(Cl)Cl)N1CCc3cc4c(cc3C1=C2)OCO4 (stereo not drawn) [AB35505] | 1240 nM | 420 nM | – | –
CCCOc1c(OC)ccc2c1C(C(Cl)(Cl)Cl)N1CCc3cc4c(cc3C1=C2)OCO4 (stereo not drawn) [AB35506] | 3450 nM | 1490 nM | – | –
CCCCCCC1=C2c3cc4c(cc3CCN2C(C(Cl)(Cl)Cl)c2c1ccc(OC)c2OC)OCO4 (stereo not drawn) [AB35508] | 2250 nM | 990 nM | – | –
COc1ccc2c(c1N1CCN(C)CC1)C(C1CCCC1)N1CCc3cc4c(cc3C1=C2)OCO4 (stereo not drawn) [AB35510] | – | – | 830 nM | 290 nM
CCCOc1c(OC)ccc2c1C(C1CCCC1)N1CCc3cc4c(cc3C1=C2)OCO4 (stereo not drawn) [AB35512] | 4270 nM | 1570 nM | – | –
COc1ccc2c(c1N1CCC(C(F)(F)F)CC1)C(C(Cl)(Cl)Cl)N1CCc3cc4c(cc3C1=C2)OCO4 (stereo not drawn) [AB35514] | 3420 nM | 1330 nM | – | –
COc1ccc2c(c1N1CCN(C)CC1)C(C(Cl)(Cl)Cl)N1CCc3cc4c(cc3C1=C2)OCO4 (stereo not drawn) [AB35518] | 8250 nM | 3080 nM | – | –
COc1ccc2c(c1N1CCN(C)CC1)C(C1CCCC1)N1CCc3cc4c(cc3C1=C2)OCO4 (stereo not drawn) [AB35519] | – | – | 13600 nM | 6030 nM
CCC(CC)COc1c(OC)ccc2c1C(C(Cl)(Cl)Cl)N1CCc3cc4c(cc3C1=C2)OCO4 (stereo not drawn) [AB35521] | 2400 nM | 1030 nM | – | –
CCCCCC1=C2c3cc4c(cc3CCN2C(C2CCCC2)c2c1ccc(OC)c2OC)OCO4 (stereo not drawn) [AB35522] | 3950 nM | 1340 nM | – | –
COc1ccc2c(c1OC)C(C1CCCC1)N1CCc3cc4c(cc3C1=C2CCCCCCBr)OCO4 (stereo not drawn) [AB35523] | 3220 nM | 1390 nM | – | –
COc1ccc2c(c1OC)C(C(Cl)(Cl)Cl)N1CCc3cc4c(cc3C1=C2CCCCCCCl)OCO4 (stereo not drawn) [AB35524] | 4040 nM | 1900 nM | – | –
COc1ccc2c(c1OCCCc1ccccc1)C(C(Cl)(Cl)Cl)N1CCc3cc4c(cc3C1=C2)OCO4 (stereo not drawn) [AB35525] | 2480 nM | 700 nM | – | –
COc1ccc2c(c1OCc1ccccc1-c1ccccc1)C(C(Cl)(Cl)Cl)N1CCc3cc4c(cc3C1=C2)OCO4 (stereo not drawn) [AB35531] | 3600 nM | 1550 nM | – | –
C=CCOc1c(OC)ccc2c1C(C(Cl)(Cl)Cl)N1CCc3cc4c(cc3C1=C2)OCO4 (stereo not drawn) [AB35534] | 3920 nM | 1280 nM | – | –
COc1ccc2c(c1OCCCCc1ccccc1)C(C(Cl)(Cl)Cl)N1CCc3cc4c(cc3C1=C2)OCO4 (stereo not drawn) [AB35535] | 590 nM | 180 nM | – | –

SMILES | IC50 (mPTP-active Daoy cell; Homo sapiens, Daoy) | IC50 (mPTP-inactive Daoy cell; Homo sapiens, Daoy) | IC50 (mPTP-active Daoy cell) | IC50 (mPTP-inactive Daoy cell)
CCCOc1c(OC)ccc2c1CN1CCc3cc4c(cc3C1=C2)OCO4 [AB35536] | 1300 nM | 400 nM | – | –
COc1ccc2c(c1OCCCCl)CN1CCc3cc4c(cc3C1=C2)OCO4 [AB35543] | 1220 nM | 440 nM | – | –
COc1ccc2c(c1OCCCBr)CN1CCc3cc4c(cc3C1=C2)OCO4 [AB35544] | 720 nM | 200 nM | – | –
COc1ccc2c(c1N1CCC(C)CC1)CN1CCc3cc4c(cc3C1=C2)OCO4 [AB35545] | 530 nM | 200 nM | – | –
COc1ccc2c(c1N1CCC(Cl)CC1)CN1CCc3cc4c(cc3C1=C2)OCO4 [AB35550] | 6360 nM | 2050 nM | – | –
COc1ccc2c(c1OCCCF)CN1CCc3cc4c(cc3C1=C2)OCO4 [AB35590] | 4540 nM | 1410 nM | – | –
CCOc1c(OC)ccc2c1CN1CCc3cc4c(cc3C1=C2)OCO4 [AB35594] | 2660 nM | 1100 nM | – | –
COc1ccc2c(c1OCCF)CN1CCc3cc4c(cc3C1=C2)OCO4 [AB35599] | 5410 nM | 2430 nM | – | –
COc1ccc2c(c1OCCBr)CN1CCc3cc4c(cc3C1=C2)OCO4 [AB36403] | 1660 nM | 540 nM | – | –
[2H]C1c2c(ccc(OC)c2OC)C=C2c3cc4c(cc3CCN21)OCO4 (stereo not drawn) [AB36415] | 2180 nM | 1070 nM | – | –
CCCC1c2c(ccc3c2OCO3)C=C2c3cc4c(cc3CCN21)OCO4 (stereo not drawn) [AB36416] | 3780 nM | 1440 nM | – | –
C1=C2c3cc4c(cc3CCN2C(C2CCCC2)c2c1ccc1c2OCO1)OCO4 (stereo not drawn) [AB36423] | 6760 nM | 2020 nM | – | –
CCC1=C2c3cc4c(cc3CCN2C(C(Cl)(Cl)Cl)c2c1ccc1c2OCO1)OCO4 (stereo not drawn) [AB36426] | 30900 nM | 35000 nM | – | –
CCCC1=C2c3cc4c(cc3CCN2C(C(Cl)(Cl)Cl)c2c1ccc1c2OCO1)OCO4 (stereo not drawn) [AB36427] | 11900 nM | 4300 nM | – | –
C1=C2c3cc4c(cc3CCN2Cc2cc3c(cc21)OCO3)OCO4 [AB36428] | 920 nM | 400 nM | – | –
CCCC1=C2c3cc4c(cc3CCN2C(C2CCCC2)c2c1ccc1c2OCO1)OCO4 (stereo not drawn) [AB36432] | 4320 nM | 1880 nM | – | –
CCCCCC1c2c(ccc3c2OCO3)C=C2c3cc4c(cc3CCN21)OCO4 (stereo not drawn) [AB36433] | 1920 nM | 580 nM | – | –
[2H]C1([2H])c2c(ccc(OC)c2OC)C=C2c3cc4c(cc3CCN21)OCO4 [AB36434] | 2420 nM | 1130 nM | – | –
[2H]C1c2c(ccc(OC)c2OCCC)C=C2c3cc4c(cc3CCN21)OCO4 (stereo not drawn) [AB36437] | 1370 nM | 540 nM | – | –
